The conditions of the series: guinea pig, in vivo.

The structures appear in SMILES notation. Bounds are passed on as bounds.

The compound `CCN(CC)CCOc1ccc2c(c1)C(=O)c1cc(OCCN(CC)CC)ccc1-2` [Tilorone] showed a well tolerated dose of at most 60 mg/kg.

The record behind these values is publication PMC8194506 (Antiviral research, 2020).
